These results are taken from patent US20230326554A1, “IDENTIFYING TREATMENT RESPONSE SIGNATURES” (Rutgers, The State University of New Jersey, priority 2022, published 2023).

Common to all, as to type: cell-based, human
One series has as its system MYC. The series is described as follows: doxycycline-inducible shRNA knockdown of NME2, Western blot. The note with it: C4-2B cells, 0-2000 ng/mL doxycycline for 96 hours. The protocol:
Finally, C4-2B cells expressing doxycycline-inducible shRNA targeting NME2 were generated using the targeting sequence […] (SEQ ID NO: 9). Cells were treated with 0-2000 ng/mL doxycycline for 96 hours and NME2 and MYC expression were evaluated by Western blot.

The subject of series [1] is C42B-EnzaRes cells. The series is described as follows: colony formation assay. The note with it: MYCi975 2 μM, Enzalutamide 10 μM, compared to Intact (DMSO). The protocol:
(§1) FIGS. 21A-21F show MYC targeting is beneficial for patients in Enzalutamide-resistant conditions. (FIG. 21A) Drug sensitivity curves of Enzalutamide-naïve, or Enzalutamide-resistant (EnzaRes) C42B cells treated with MYCi975. (FIG. 21B) Colony formation assay using Enzalutamide-resistant (EnzaRes) C42B cells in Intact (treated with DMSO), treated with Enzalutamide (10 μM), MYCi975 (2 μM), or a combination of Enzalutamide+MYCi975 (10 μM+2 μM). Cells were grown in the presence of respective drugs. Representative images are shown. P-value was estimated using a one-tailed Welch t-test. (FIG. 21C) Boyden chamber-based in vitro migration assay using Enzalutamide-resistant (EnzaRes) C42B cells in Intact (treated with DMSO), treated with Enzalutamide (10 μM), MYCi975 (2 μM), or a combination of Enzalutamide+MYCi975 (10 μM+2 μM). Bars represent the quantification of Crystal Violet trapped by migrated cells. P-value was estimated using a one-tailed Welch t-test. (FIG. 21D) Expression of NME2 in Intact and Enzalutamide-resistant (EnzaRes) C42B cells, using the qRT-PCR. P-value was estimated using the one-tailed Welch t-test. […] Bars represent the quantification of Crystal Violet trapped by migrated cells. * p-value<0.05, ** p-value≤0.01, *** p-value≤0.001 […]

Series [2] has as its system C42B-EnzaRes cells. In words: Boyden chamber-based in vitro migration assay. The conditions noted are these: for cell migration with NME2 knockdown added: C42B-EnzaRes cells with knockdown of NME2. The protocol: FIGS. 21A-21F show MYC targeting is beneficial for patients in Enzalutamide-resistant conditions. (FIG. 21A) Drug sensitivity curves of Enzalutamide-naïve, or Enzalutamide-resistant (EnzaRes) C42B cells treated with MYCi975. (FIG. 21B) Colony formation assay using Enzalutamide-resistant (EnzaRes) C42B cells in Intact (treated with DMSO), treated with Enzalutamide (10 μM), MYCi975 (2 μM), or a combination of Enzalutamide+MYCi975 (10 μM+2 μM). Cells were grown in the presence of respective drugs. Representative images are shown. P-value was estimated using a one-tailed Welch t-test. (FIG. 21C) Boyden chamber-based in vitro migration assay using Enzalutamide-resistant (EnzaRes) C42B cells in Intact (treated with DMSO), treated with Enzalutamide (10 μM), MYCi975 (2 μM), or a combination of Enzalutamide+MYCi975 (10 μM+2 μM). Bars represent the quantification of Crystal Violet trapped by migrated cells. P-value was estimated using a one-tailed Welch t-test. (FIG. 21D) Expression of NME2 in Intact and Enzalutamide-resistant (EnzaRes) C42B cells, using the qRT-PCR. P-value was estimated using the one-tailed Welch t-test. (FIG. 21E) Two different siRNAs targeting NME2 were used to downregulate NME2 (left panel) and its effect on MYC expression using qRT-PCR is shown (right panel). (FIG. 21F) Boyden chamber-based in vitro migration assay using Enzalutamide-resistance (EnzaRes) C42B cells in Intact (treated with DMSO) or treated with a combination of Enzalutamide+MYCi975 (10 μM+2 μM) with or without knockdown of NME2. Bars represent the quantification of Crystal Violet trapped by migrated cells. * p-value<0.05, ** p-value≤0.01, *** p-value≤0.001

In another series the test system is LNCaP cells. The series is described as follows: dose-response cell viability assay. The conditions noted are these: Enzalutamide-naïve and Enzalutamide-resistant conditions, varying doses, dose-dependent. Here is the method: (§2) FIGS. 22A and 22B show MYC inhibition reduces viability and colony formation in Enzalutamide resistant conditions. (FIG. 22A) Drug response curves of Enzalutamide naïve LNCaP or Enzalutamide-resistant LNCaP cells treated with Enzalutamide and/or MYC-i975. (FIG. 22B) Colony formation assay using Enzalutamide-resistant LNCaP cells t(LNCaP-Enza-Res) in intact (treated with DMSO), treated with enzalutamide (10 μM), MYC-i975 (2 μM), or a combination of Enzalutamide+MYC-i975 (10 μM+2 μM). Cells were grown in the presence of respective drugs. Bars represent quantification of Crystal Violet trapped by migrated cells. P-value is estimated utilizing one-tailed Welch t-test. * p<0.05, *** p≤0.001.
(§3) Generation of Enzalutamide-resistant cell lines: LNCaP (clone FDG) and C42B cells were purchased from ATCC and were grown in RPMI1640 media (GIBCO # 11875093) supplemented with 10% Fetal Bovine Serum (FBS, Corning Cat#35-011-CV) and maintained at […] in and 5% CO2. Enzalutamide powder was purchased from Sellekchem (cat #S1250) and re-suspended in DMSO. Cells were plated in 6 well plates and treated either with DMSO, or with Enzalutamide (20 uM), refreshed every 4 days for up to 3 months until the resistance emerged. RNA from cells was extracted on indicated days using the methods described below. […]

The test system of the next series is C42B cells. The series is described as follows: dose-response cell viability assay. The note with it: Enzalutamide-naïve and Enzalutamide-resistant conditions, varying doses, dose-dependent. The protocol:
as §1

The subject of another series is LNCaP-EnzaRes cells. In words: colony formation assay. The conditions noted are these: MYCi975 2 μM, Enzalutamide 10 μM, compared to Intact (DMSO). Here is the method: as §2, §3

In the case of “shRNA targeting NME2: doxycycline-inducible shRNA targeting NME2, targeting sequence GAAATCAGCCTATGGTTTAAG (SEQ ID NO: 9)”, in the series with MYC, the MYC expression entry is “suppresses MYC expression”.
For `Cn1nc(C(F)(F)F)cc1-c1ccc(OCc2ccc(Cl)cc2)c(-c2ccc(Cl)c(C(F)(F)F)c2)c1O` [MYCi975], the colony formation entry in the series with C42B-EnzaRes cells [1] and in the series on LNCaP-EnzaRes cells was “reduced the colony formation” in each case. Besides, the “cell migration with NME2 knockdown added” value in the series with C42B-EnzaRes cells [2] is recorded as “further reduced”. Moreover, in the series with C42B-EnzaRes cells [2] (C42B-EnzaRes cells, MYCi975 2 μM, Enzalutamide 10 μM, compared to Intact (DMSO)), the cell migration entry is “significant reduction in cell migration”. Also, the cell viability result with LNCaP cells and with C42B cells was “striking reduction of the cell viability” each time.
On to `CNC(=O)c1ccc(N2C(=S)N(c3ccc(C#N)c(C(F)(F)F)c3)C(=O)C2(C)C)cc1F` [Enzalutamide], for which the “cell migration with NME2 knockdown added” value with C42B-EnzaRes cells [2] is “low metastatic capability”.
